Consider one compound from article PMC7466159, “Anti-Metastasis Fascin Inhibitors Decrease the Growth of Specific Subtypes of Cancers” (Cancers, 2020).

The test system of test [1] is BT-20 triple-negative breast cancer cells. The test is described as follows: Cell growth assay, BT-20. The settings on record: BT-20 cells in culture, 10% serum. Type of test: cell-based.
For test [2], the system named is HCC38 triple-negative breast cancer cells. The test is described as follows: Cell growth assay, HCC38. It counts as cell-based. The following applies: HCC38 cells in culture, 10% serum.
Test [3] deals with MDA-MB-468 tumor cells. In words: MDA-MB-468 breast cancer model in NSG mice (tumor growth, overall survival). Type of test: in vivo. The following applies: treatment from Day 14, compared with the control group. As for the experimental part: MDA-MB-468 cells and HCC38 cells grew in the presence of EGF with or without NP-G2-044. […] Finally, we used the animal model to investigate whether the primary tumor growth of MDA-MB-468 cells was sensitive to fascin inhibitors. MDA-MB-468 tumor cells were implanted into the mammary gland of NSG mice, and these mice were randomly divided into four groups. One group of mice was used as control (Figure 6I). The second group of mice was treated with the fascin inhibitor NP-G2-044 (Figure 6I). The third group was treated with the EGFR inhibitor gefitnib (Figure 6I), and the fourth group was treated with the combination of NP-G2-044 + gefitinib (Figure 6I). […] We dissected the primary tumor tissues 55 days after the tumor implantation from some mice. […] Furthermore, the overall survival of the mice was analyzed (Figure 6K).
For the breast cancer model, MDA-MB-468 cells (5 × 10^6) suspended in PBS-matrigel (v/v, 1:1) were injected subcutaneously into the abdominal mammary gland area of female NSG mice on Day 0 as previously described. Starting on Day 14, NP-G2-044 was given once a day for 5 days every week by gavage at 300 mg kg^−1 per mouse until their death. Starting on Day 14, gefitinib was given twice weekly by gavage at 150 mg kg^−1 per mouse until their death. The control solvent was given once a day for 5 days every week by gavage according to their body weight until their death. […] The primary tumor volume was calculated as length × width^2 ×π/6.

Test [4] has as its system MDA-MB-468 triple-negative breast cancer cells. In words: Cell growth assay, MDA-MB-468. It counts as cell-based. The following applies: MDA-MB-468 cells in culture, 10% serum.

SMILES strings stand for the structures.

Consider `COc1cc2ncnc(Nc3ccc(F)c(Cl)c3)c2cc1OCCCN1CCOCC1` [gefitinib, reference compound], for which the growth sensitivity entry in test [1], in test [2] and in test [4] was “sensitive” throughout. In addition, the “growth of primary tumors” value in test [3] is “reduced the growth of primary tumors to the same degree”. For the same compound, the “increase of median overall survival” value in test [3] is reported as ~ 50%.
